The record followed here is patent US8211907B2, “Fused indane compound” (priority 2007, dated 2012).

Counter-ions that a name gives are not always drawn. Like-named read-outs stand apart in the source and are kept apart here. Bounds are passed on as bounds.

For one assay, the system named is male ddy mouse. The assay is described as follows: MES (maximal electroshock seizure) inhibitory action. The class given is in vivo. To be noted: for ED50: oral administration, electroshock 30 minutes later. On the procedure:
A test compound was orally administered to a male ddy mouse, an inhibitory action on the seizures caused by an electroshock applied at 30 minutes later (Interval 10 ms, Duration 0.9 ms, Amplitude 50 mA, Gate 0.2 s) was evaluated, and an NMDA receptor inhibitory action in vivo was measured (Palmer G C, Harris E W, Ray R, Stagnitto M L, Schmiesing R J. Arch Int Pharmacodyn Ther. 1992 May-June; 317: 16-34).

Assay [1] has as its target NMDA receptor.
Assay [2] has as its system T1, NMDA receptor.
T1 construct: IC50
The assay is described as follows: Intracellular calcium concentration determination by FLIPR in rat first-generation neurocytes (NMDA/glycine stimulation). To be noted: rat first-generation neurocytes (DIV7-9), NMDA/glycine-induced calcium rise, 10 μM MK-801 = 100% inhibition. The class given is cell-based. On the procedure: 1) Preparation of Rat First-Generation Neurocytes
Anesthetized with ether, Wistar rats (Nippon SLC) at the 19th day of pregnancy were let die from blood loss by breast incision. The abdomen was cut open, and the womb was extracted, and the fetus was removed. The whole brain was removed, the hemicerebrum was then isolated in Neurobasal medium (Glu, Asp-free; Gibco), and the meninx was removed. The hemicerebrum was recovered by centrifugation, and suspended in a cell-dispersing solution (0.36 mg/ml papain, 150 U/ml DNase 1, 0.02% L-cysteine monohydrochloride monohydrate, 0.02% bovine serum albumin, 0.5% glucose, Ca^2+, Mg^2+-free PBS), and treated at 37° C. for 15 minutes. This was centrifuged at 400 g for 5 minutes, and the supernatant was removed by suction. This was suspended in a neurocyte culture medium (Sumitomo Bakelite), and the cell masses were removed using a filter. The number of the living cells was counted, and 100,000 cells/well were incubated on a 96-well plate (Biocoat PDL96W black/clear (Nippon Becton Dickinson)) (37° C., 5% CO2).
2) Intracellular Calcium Concentration Determination by FLIPR (Fluorometric Imaging Plate Reader)
The culture medium of rat first-generation neurocytes (DIV7-9) was removed by suction, and the cells were washed once with a 100 μl assay buffer (Hank's Balanced Salt Solution (Ca^2+, Mg^2+-free), 20 mM Hepes-NaOH (pH 7.4), 1 mM CaCl2). 100 μl of the assay buffer containing Fluo3 (Dojin Chemical) was added thereto, and incubated for 1 hour (37° C., 5% CO2). The cells were washed three times with 100 μl of the assay buffer, and then a compound solution dissolved in 1 μl of dimethylsulfoxide, and 100 μl of the assay buffer containing 2.5 μM (final concentration) tetrodotoxin were added thereto and incubated for 30 minutes (37° C., 5% CO2). The fluorescent intensity was measured at intervals of two seconds, and ten seconds after the measurement start, 50 μl of a ligand solution (Hank's Balanced Salt Solution (Ca^2+, Mg^2+-free), 20 mM Hepes-NaOH (pH 7.4), 1 mM CaCl2, 9 μM NMDA, 30 μM glycine) containing the compound solution dissolved in 0.5 μl of dimethylsulfoxide was added thereto, and the fluorescent intensity was measured for 120 seconds from the start of the measurement. The data measured for total of 120 seconds (60 times in total) were averaged.

Assay [3] addresses NMDA receptor. Description: [3H] MK-801 binding test on rat brain membrane specimen.
Where [4] appears, read: Mus musculus, po, 0.5 h, read-out: ED50.

In the case of `c1ccc2c(c1)C[C@H]1CCCN[C@@H]21` (racemic) [Compound A, (4aRS,9bRS)-2,3,4,4a,5,9b-hexahydro-1H-indeno[1,2-b]pyridine, reference compound], the ED50 in the assay on male ddy mouse (setting [4]) is above 80 mg/kg. Further, in the assay on male ddy mouse (at 80 mg/kg, oral), the anti-seizure action entry is reported as “did not exhibit an anti-seizure action”. Moreover, on NMDA receptor [1], the affinity corresponds to a Ki of 38 µM.

Compound `c1ccc([C@@H]2c3ccccc3[C@@H]3NCCC[C@H]23)cc1` (racemic) [Compound B, (4aRS,5RS,9bRS)-5-phenyl-2,3,4,4a,5,9b-hexahydro-1H-indeno[1,2-b]pyridine, reference compound] registered a Ki at NMDA receptor [1] of 23 µM.

`c1ccc([C@@H]2c3ccccc3[C@@H]3NCCC[C@H]23)cc1` (racemic) [Compound C, reference compound] gave a Ki on NMDA receptor [1] of 20 µM.

Regarding `CC[C@]12CCCN[C@H]1c1ccccc1C2` (racemic) [Example 1, (4aRS,9bRS)-4a-ethyl-2,3,4,4a,5,9b-hexahydro-1H-indeno[1,2-b]pyridine hydrochloride], the IC50 in the assay with NMDA receptor [2] (read-out: IC50) came to 5.1 µM. In the assay with male ddy mouse (setting [4]), the ED50 came to 6.8 mg/kg. For the same compound, at NMDA receptor [3], the Ki came out at 900 nM.

Regarding `C[C@@]12CCCN[C@@H]1c1ccccc1S2` (racemic) [Example 13, (4aRS,9bRS)-4a-methyl-1,2,3,4,4a,9b-hexahydro[1]benzothieno[3,2-b]pyridine hydrochloride], the ED50 with male ddy mouse (setting [4]) amounted to 14 mg/kg. The compound further registered a Ki at NMDA receptor [3] of 2000 nM.

For `C[C@]12CCCN[C@H]1c1ccccc1C2` (racemic) [Example 22, (4aRS,9bRS)-4a-methyl-2,3,4,4a,5,9b-hexahydro-1H-indeno[1,2-b]pyridine hydrochloride], in the assay with NMDA receptor [2] (read-out: IC50), the concentration for half-maximal inhibition (IC50) turned out to be 34 µM. Further, the ED50 with male ddy mouse (setting [4]) was found to be 11 mg/kg. In addition, the Ki at NMDA receptor [3] came to 5100 nM.

Compound `C[C@]12CCCCN[C@H]1c1ccccc1C2` (racemic) [Example 38-1, (5aRS,10bRS)-5a-methyl-1,2,3,4,5,5a,6,10b-octahydroindeno[1,2-b]azepine hydrochloride] displayed a Ki at NMDA receptor [3] of 500 nM.

Take `C[C@]12CCCCN[C@@H]1c1ccccc1C2` (racemic) [Example 38-2, (5aRS,10bSR)-5a-methyl-1,2,3,4,5,5a,6,10b-octahydroindeno[1,2-b]azepine hydrochloride]: the Ki on NMDA receptor [3] was determined as 6300 nM.

Regarding `CN1CCC[C@]2(C)Cc3ccccc3[C@H]12` (racemic) [Example 42, (4aRS,9bRS)-1,4a-dimethyl-2,3,4,4a,5,9b-hexahydro-1H-indeno[1,2-b]pyridine methanesulfonate], in the assay on male ddy mouse (setting [4]), the ED50 was found to be 31 mg/kg. The affinity at NMDA receptor [1] corresponds to a Ki of 1.3 µM.

Turning to `C[C@]12CCCN[C@@]1(C)c1ccccc1C2` (racemic) [Example 63, (4aRS,9bRS)-4a,9b-dimethyl-2,3,4,4a,5,9b-hexahydro-1H-indeno[1,2-b]pyridine hydrochloride], in the assay with NMDA receptor [2] (read-out: IC50), the IC50 came to 3 µM. Further, in the assay with male ddy mouse (setting [4]), the ED50 turned out to be 5.8 mg/kg. Further, the inhibition constant (Ki) at NMDA receptor [3] is 800 nM.

Consider `CC[C@]12CCCN[C@H]1c1cc(COC)ccc1C2` (racemic) [Example 73, (4aRS,9bRS)-4a-ethyl-8-(methoxymethyl)-2,3,4,4a,5,9b-hexahydro-1H-indeno[1,2-b]pyridine hydrochloride], for which, on NMDA receptor [3], the Ki was found to be 7100 nM.

`CC[C@]12CCCN[C@H]1c1ccccc1C2` (single isomer, unassigned) [Example 83-1, (4aR*,9bR*)-4a-ethyl-2,3,4,4a,5,9b-hexahydro-1H-indeno[1,2-b]pyridine hydrochloride]: the IC50 in the assay on NMDA receptor [2] (hydrochloride, read-out: IC50) stood at 3.1 µM. Also, in the assay on male ddy mouse (setting [4]), the ED50 worked out at 6.2 mg/kg. Affinity at NMDA receptor [3] (hydrochloride) was put at a Ki of 600 nM.

In the case of `CC[C@]12CCCN[C@H]1c1ccccc1C2` (single isomer, unassigned) [Example 83-2, (4aR*,9bR*)-4a-ethyl-2,3,4,4a,5,9b-hexahydro-1H-indeno[1,2-b]pyridine hydrochloride], the IC50 with NMDA receptor [2] (hydrochloride, read-out: IC50) turned out to be 12 µM. The affinity on NMDA receptor [3] (hydrochloride), expressed as Ki, was 2700 nM.

Take `C[C@]12CCCN[C@@]1(C)c1ccccc1C2` (single isomer, unassigned) [Example 84-1, (4aR*,9bR*)-4a,9b-dimethyl-2,3,4,4a,5,9b-hexahydro-1H-indeno[1,2-b]pyridine hydrochloride]: the IC50 with NMDA receptor [2] (hydrochloride, read-out: IC50) amounted to 1.8 µM. Moreover, the ED50 in the assay with male ddy mouse (hydrochloride) was 4.2 mg/kg, po. This compound also gave a Ki at NMDA receptor [3] (hydrochloride) of 500 nM.

On to `C[C@]12CCCN[C@@]1(C)c1ccccc1C2` (single isomer, unassigned) [Example 84-2, (4aR*,9bR*)-4a,9b-dimethyl-2,3,4,4a,5,9b-hexahydro-1H-indeno[1,2-b]pyridine hydrochloride], for which, in the assay on NMDA receptor [2] (hydrochloride, read-out: IC50), the IC50 came out at 6.1 µM. Moreover, in the assay with male ddy mouse (hydrochloride), the ED50 is 28 mg/kg, po. The compound also returned a Ki at NMDA receptor [3] (hydrochloride) of 1100 nM.

With `c1ccc([C@]23CCCN[C@H]2c2ccccc2C3)cc1` [Example 3], in the assay on NMDA receptor [2], the IC50 was 6.8 µM. In addition, the ED50 with male ddy mouse (setting [4]) turned out to be 39 mg/kg. For the same compound, affinity at NMDA receptor [3] was put at a Ki of 1200 nM.

Turning to `Cc1cc2c(s1)C[C@]1(C)CCCN[C@H]21` [Example 15], the ED50 with male ddy mouse (setting [4]) is 38 mg/kg. Further, on NMDA receptor [1], the Ki stood at 8.5 µM.

As for `C[C@@]12CCCN[C@@H]1c1ccccc1CC2` [Example 17], in the assay with male ddy mouse (setting [4]), the ED50 was 4.2 mg/kg. This compound also yielded a Ki at NMDA receptor [1] of 2 µM.

On to `CC(C)[C@]12CCCN[C@@H]1c1ccccc1C2` [Example 32], for which the ED50 with male ddy mouse (setting [4]) amounted to 26 mg/kg. The same compound showed an inhibitory constant (Ki) at NMDA receptor [1] of 6.8 µM.

On to `COc1ccc2c(c1)[C@H]1N(C)CCC[C@@]1(C)C2` [Example 56], for which the affinity on NMDA receptor [3], expressed as Ki, was 1500 nM.

For the compound `COC[C@]12CCCN[C@@]1(C)c1ccccc1C2` [Example 68], in the assay on male ddy mouse (setting [4]), the ED50 amounted to 26 mg/kg. At NMDA receptor [1], this compound gave a Ki of 0.6 µM.

Turning to `CCOC[C@]12CCCN[C@@]1(C)c1ccccc1C2` [Example 69], at NMDA receptor [3], the Ki was 1300 nM.

With `CC[C@]12CCCN[C@H]1c1cc(CO)ccc1C2` [Example 77], the affinity at NMDA receptor [3] corresponds to a Ki of 4000 nM.

On to `C[C@]12CCCN[C@H]1c1ccccc1C2` [Example 81, (4aR,9bR)-4a-methyl-2,3,4,4a,5,9b-hexahydro-1H-indeno[1,2-b]pyridine hydrochloride], for which the IC50 with NMDA receptor [2] (read-out: IC50) turned out to be 21 µM. The ED50 with male ddy mouse (setting [4]) was 9.1 mg/kg. At NMDA receptor [3], this compound registered a Ki of 2000 nM.

With `C[C@@]12CCCN[C@@H]1c1ccccc1C2` [Example 82, (4aS,9bS)-4-a-methyl-2,3,4,4a,5,9b-hexahydro-1H-indeno[1,2-b]pyridine hydrochloride], the IC50 with NMDA receptor [2] (read-out: IC50) stood at 94 µM. Further, the 50% effective dose (ED50) in the assay on male ddy mouse (setting [4]) worked out at 19 mg/kg. At NMDA receptor [1], affinity was put at a Ki of 6.7 µM.
